# Patent US4145444A, “Anti-inflammatory agent of benzoyl derivative” (priority 1977, dated 1979)
# Test system: hind paws of male rats
# Assay: Anti-inflammatory effect: acute carragheenin edema method
# Type: in vivo
# Details: Rattus norvegicus, po, read-out: Anti-inf.: edema inhibition rate
# Method: The edema was induced by subcutaneous injection of 1% carragheenin suspension in saline to the hind paws of male rats weighting 150 to 180 g. Each sample was orally given at the dosage of 100 mg/kg just before the inoculation of carragheenin.
row,SMILES,inhibition in vivo at 100 mg/kg
1,CCCCCCCc1ccc(C(=O)c2ccc(C)cc2)cc1 [compound 85],18.7%

# Same assay, conditions: Rattus norvegicus; 100 mg/kg oral, carragheenin edema, male rats (Table 2); read-out: Anti-inf.: edema inhibition rate
row,SMILES,inhibition in vivo at 100 mg/kg
1,CCCCc1ccc(CCCC)c(C(=O)c2ccccc2)c1 [compound 77],13.2%
2,Cc1cc(C)c(C)c(C(=O)c2ccccc2)c1C [compound 78],12.5%
3,Cc1cc(C)c(C(=O)c2ccccc2)c(C)c1C [compound 79],33.2%
4,CCc1ccc(CC)c(C(=O)c2ccccc2)c1 [compound 80],31.9%
5,CCOc1ccc(C(=O)c2ccccc2)cc1 [compound 81],15.3%
6,C=Cc1ccc(C(=O)c2ccccc2)cc1 [compound 82],23.8%
7,Cc1ccc(C(=O)c2ccc(C)cc2)cc1 [compound 83],20%
8,CCCCCc1ccc(C(=O)c2ccc(C)cc2)cc1 [compound 84],28.4%
9,Cc1ccc(C(=O)c2c(C)cc(C)cc2C)cc1 [compound 86],17.7%
10,CCCc1ccc(C(=O)c2cccc(C)c2)cc1 [compound 87],18.7%
11,CCCCc1ccc(C(=O)c2cccc(C)c2)cc1 [compound 88],21.6%
12,CCCCCc1ccc(C(=O)c2cccc(C)c2)cc1 [compound 89],27.6%
13,CCCc1ccc(C(=O)c2ccccc2C)cc1 [compound 90],19.7%
14,Cc1ccccc1C(=O)c1c(C)c(C)cc(C)c1C [compound 91],21.4%
15,CCCc1ccc(C(=O)c2ccc(OC)cc2)cc1 [compound 93],20.4%
16,CCCCOc1ccc(C(=O)c2c(C)cc(C)cc2C)cc1 [compound 94],26.6%
17,CCCCOc1ccc(C(=O)c2ccc(CCCC)cc2)cc1 [compound 95],17.1%
18,CCCc1ccc(C(=O)c2ccc(C)cc2C)cc1 [compound 96],26.1%
19,CCCc1ccc(C(=O)c2c(C)cc(C)cc2C)cc1 [compound 97],13%
20,CCCCc1ccc(C(=O)c2ccc(CCC)cc2)cc1 [compound 98],31.9%
21,CCCCCc1ccc(C(=O)c2ccc(CCC)cc2)cc1 [compound 99],34.1%
22,CCCCCCCc1ccc(C(=O)c2ccc(CCCC)cc2)cc1 [compound 100],14%
23,CCCCCCCCc1ccc(C(=O)c2ccc(CCCC)cc2)cc1 [compound 101],23.1%
24,CCCCCCCCCc1ccc(C(=O)c2ccc(CCCC)cc2)cc1 [compound 102],22.4%
25,CCCCCCc1ccc(C(=O)c2c(C)cc(C)cc2C)cc1 [compound 103],29.7%
26,CCCc1ccc(C(=O)c2ccc(O)cc2)cc1 [compound 104],27.4%
27,CCCCCc1ccc(C(=O)c2ccc(O)cc2)cc1 [compound 105],33.6%

# Test system: platelet
# Assay: Blood platelet aggregation inhibiting effect (collagen-induced)
# Type: cell-based, rabbits
# Details: Oryctolagus cuniculus, Platelet; 10^-4 mole, collagen inducer, rabbit PRP; read-out: Blood platelet agg. inh.: percentage inhibition of platelet aggregation
# From the text: Male rabbits (Japan original white strain 3.3 to 3.6 kg) were anesthetized with Thiopental sodium and blood was sampled from the carotid artery.
row,SMILES,inhibition at 100 µM
1,CCCCc1ccc(CCCC)c(C(=O)c2ccccc2)c1 [compound 77],25.1%
2,Cc1cc(C)c(C)c(C(=O)c2ccccc2)c1C [compound 78],19.9%
3,Cc1cc(C)c(C(=O)c2ccccc2)c(C)c1C [compound 79],26.8%
4,CCc1ccc(CC)c(C(=O)c2ccccc2)c1 [compound 80],30.3%
5,CCOc1ccc(C(=O)c2ccccc2)cc1 [compound 81],18.3%
6,C=Cc1ccc(C(=O)c2ccccc2)cc1 [compound 82],20.5%
7,Cc1ccc(C(=O)c2ccc(C)cc2)cc1 [compound 83],27.6%
8,CCCCCc1ccc(C(=O)c2ccc(C)cc2)cc1 [compound 84],8.6%
9,CCCCCCCc1ccc(C(=O)c2ccc(C)cc2)cc1 [compound 85],18.7%
10,Cc1ccc(C(=O)c2c(C)cc(C)cc2C)cc1 [compound 86],28.3%
11,CCCc1ccc(C(=O)c2cccc(C)c2)cc1 [compound 87],30.1%
12,CCCCc1ccc(C(=O)c2cccc(C)c2)cc1 [compound 88],24.5%
13,CCCCCc1ccc(C(=O)c2cccc(C)c2)cc1 [compound 89],22.6%
14,CCCc1ccc(C(=O)c2ccccc2C)cc1 [compound 90],10.8%
15,Cc1ccccc1C(=O)c1c(C)c(C)cc(C)c1C [compound 91],14.7%
16,CCCc1ccc(C(=O)c2ccc(OC)cc2)cc1 [compound 93],24.4%
17,CCCCOc1ccc(C(=O)c2c(C)cc(C)cc2C)cc1 [compound 94],27.9%
18,CCCCOc1ccc(C(=O)c2ccc(CCCC)cc2)cc1 [compound 95],30%
19,CCCc1ccc(C(=O)c2ccc(C)cc2C)cc1 [compound 96],28.5%
20,CCCc1ccc(C(=O)c2c(C)cc(C)cc2C)cc1 [compound 97],26.8%
21,CCCCc1ccc(C(=O)c2ccc(CCC)cc2)cc1 [compound 98],28.3%
22,CCCCCc1ccc(C(=O)c2ccc(CCC)cc2)cc1 [compound 99],29.5%
23,CCCCCCCc1ccc(C(=O)c2ccc(CCCC)cc2)cc1 [compound 100],22.4%
24,CCCCCCCCc1ccc(C(=O)c2ccc(CCCC)cc2)cc1 [compound 101],27.9%
25,CCCCCCCCCc1ccc(C(=O)c2ccc(CCCC)cc2)cc1 [compound 102],30.4%
26,CCCCCCc1ccc(C(=O)c2c(C)cc(C)cc2C)cc1 [compound 103],29.5%
27,CCCc1ccc(C(=O)c2ccc(O)cc2)cc1 [compound 104],25.3%
28,CCCCCc1ccc(C(=O)c2ccc(O)cc2)cc1 [compound 105],24.1%

# Test system: thrombus
# Assay: Inhibiting effect on thrombosis (by-pass between left juglar vein and right carotid artery, silk thread)
# Type: in vivo, SD type male rates
# Details: Rattus norvegicus; 100 mg/kg oral, 5 hours before first blood circulation, rats; read-out: Thrombosis inh.: thrombosis inhibition rate
# In short: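 Arteriovenous shunt with silk thread and heparin saline, run as three successive 15-min circulations, with thrombus wet weight measured on the thread each time. Compound given orally in carboxymethyl cellulose suspension at 100 mg/kg 5 h before the first circulation. Inhibition rate derived against control circulations.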
row,SMILES,inhibition in vivo at 100 mg/kg
1,CCCCc1ccc(CCCC)c(C(=O)c2ccccc2)c1 [compound 77],17.5%
2,Cc1cc(C)c(C)c(C(=O)c2ccccc2)c1C [compound 78],20.2%
3,Cc1cc(C)c(C(=O)c2ccccc2)c(C)c1C [compound 79],31.5%
4,CCc1ccc(CC)c(C(=O)c2ccccc2)c1 [compound 80],28.5%
5,CCOc1ccc(C(=O)c2ccccc2)cc1 [compound 81],20.3%
6,C=Cc1ccc(C(=O)c2ccccc2)cc1 [compound 82],30.1%
7,Cc1ccc(C(=O)c2ccc(C)cc2)cc1 [compound 83],19.3%
8,CCCCCc1ccc(C(=O)c2ccc(C)cc2)cc1 [compound 84],16%
9,CCCCCCCc1ccc(C(=O)c2ccc(C)cc2)cc1 [compound 85],16.2%
10,Cc1ccc(C(=O)c2c(C)cc(C)cc2C)cc1 [compound 86],35.6%
11,CCCc1ccc(C(=O)c2cccc(C)c2)cc1 [compound 87],25.8%
12,CCCCc1ccc(C(=O)c2cccc(C)c2)cc1 [compound 88],29.3%
13,CCCCCc1ccc(C(=O)c2cccc(C)c2)cc1 [compound 89],13.2%
14,CCCc1ccc(C(=O)c2ccccc2C)cc1 [compound 90],15%
15,Cc1ccccc1C(=O)c1c(C)c(C)cc(C)c1C [compound 91],31%
16,CCCc1ccc(C(=O)c2ccc(OC)cc2)cc1 [compound 93],26.8%
17,CCCCOc1ccc(C(=O)c2c(C)cc(C)cc2C)cc1 [compound 94],37.4%
18,CCCCOc1ccc(C(=O)c2ccc(CCCC)cc2)cc1 [compound 95],32.3%
19,CCCc1ccc(C(=O)c2ccc(C)cc2C)cc1 [compound 96],36.7%
20,CCCc1ccc(C(=O)c2c(C)cc(C)cc2C)cc1 [compound 97],37.3%
21,CCCCc1ccc(C(=O)c2ccc(CCC)cc2)cc1 [compound 98],35.4%
22,CCCCCc1ccc(C(=O)c2ccc(CCC)cc2)cc1 [compound 99],30.3%
23,CCCCCCCc1ccc(C(=O)c2ccc(CCCC)cc2)cc1 [compound 100],27.6%
24,CCCCCCCCc1ccc(C(=O)c2ccc(CCCC)cc2)cc1 [compound 101],31.4%
25,CCCCCCCCCc1ccc(C(=O)c2ccc(CCCC)cc2)cc1 [compound 102],29.7%
26,CCCCCCc1ccc(C(=O)c2c(C)cc(C)cc2C)cc1 [compound 103],35.8%
27,CCCc1ccc(C(=O)c2ccc(O)cc2)cc1 [compound 104],30.5%
28,CCCCCc1ccc(C(=O)c2ccc(O)cc2)cc1 [compound 105],31.4%

# Test system: male mice
# Assay: Analgesic effect: painful stretchings following intraperitoneal 0.7% acetic acid
# Details: Mus musculus, po, read-out: Analgesic: percentage diminition of times of painful stretching
# Method: Each sample was orally administered in the dosage of 100 mg/kg before injection of acetic acid.
row,SMILES,inhibition in vivo at 100 mg/kg
1,CCCCc1ccc(CCCC)c(C(=O)c2ccccc2)c1 [compound 77],10.8%
2,Cc1cc(C)c(C)c(C(=O)c2ccccc2)c1C [compound 78],5.4%
3,Cc1cc(C)c(C(=O)c2ccccc2)c(C)c1C [compound 79],20.8%
4,CCc1ccc(CC)c(C(=O)c2ccccc2)c1 [compound 80],16.2%
5,CCOc1ccc(C(=O)c2ccccc2)cc1 [compound 81],17.6%
6,C=Cc1ccc(C(=O)c2ccccc2)cc1 [compound 82],13.5%
7,Cc1ccc(C(=O)c2ccc(C)cc2)cc1 [compound 83],12.1%
8,CCCCCc1ccc(C(=O)c2ccc(C)cc2)cc1 [compound 84],15.3%
9,CCCCCCCc1ccc(C(=O)c2ccc(C)cc2)cc1 [compound 85],10.2%
10,Cc1ccc(C(=O)c2c(C)cc(C)cc2C)cc1 [compound 86],8.3%
11,CCCc1ccc(C(=O)c2cccc(C)c2)cc1 [compound 87],11.2%
12,CCCCc1ccc(C(=O)c2cccc(C)c2)cc1 [compound 88],5.6%
13,CCCCCc1ccc(C(=O)c2cccc(C)c2)cc1 [compound 89],4.3%
14,CCCc1ccc(C(=O)c2ccccc2C)cc1 [compound 90],13.7%
15,Cc1ccccc1C(=O)c1c(C)c(C)cc(C)c1C [compound 91],15.2%
16,CCCc1ccc(C(=O)c2ccc(OC)cc2)cc1 [compound 93],14.7%
17,CCCCOc1ccc(C(=O)c2c(C)cc(C)cc2C)cc1 [compound 94],15.8%
18,CCCCOc1ccc(C(=O)c2ccc(CCCC)cc2)cc1 [compound 95],14.5%
19,CCCc1ccc(C(=O)c2ccc(C)cc2C)cc1 [compound 96],18.9%
20,CCCc1ccc(C(=O)c2c(C)cc(C)cc2C)cc1 [compound 97],14.7%
21,CCCCc1ccc(C(=O)c2ccc(CCC)cc2)cc1 [compound 98],16.4%
22,CCCCCc1ccc(C(=O)c2ccc(CCC)cc2)cc1 [compound 99],15.5%
23,CCCCCCCc1ccc(C(=O)c2ccc(CCCC)cc2)cc1 [compound 100],10%
24,CCCCCCCCc1ccc(C(=O)c2ccc(CCCC)cc2)cc1 [compound 101],18.3%
25,CCCCCCCCCc1ccc(C(=O)c2ccc(CCCC)cc2)cc1 [compound 102],15.2%
26,CCCCCCc1ccc(C(=O)c2c(C)cc(C)cc2C)cc1 [compound 103],14.2%
27,CCCc1ccc(C(=O)c2ccc(O)cc2)cc1 [compound 104],13.2%
28,CCCCCc1ccc(C(=O)c2ccc(O)cc2)cc1 [compound 105],14.1%
